Assay results from patent publication US20090209620A1, “Direct Reversal Of The Suppressive Function Of CD4+Regulatory T Cells Via Toll-Like Receptor 8 Signaling” (priority 2005, published 2009).
In the oligonucleotide strings, read from the 5' end, every base follows the letter of its sugar. An asterisk marks phosphorothioate; unmarked linkages are phosphodiester. Other units and linkages are bracketed, terminal groups are in braces. A string of capitals states the bases alone. d = 2'-deoxy (DNA)

Assays:
[1] = tested on: Treg164 cells; assay: Reversibility of siRNA-transduced Treg164 cells by Poly-G10 (functional proliferation assay); format: cell-based, human
Description: Several siRNA sequences (19 nucleotides) for each gene were selected with use of computer-assisted programs. Oligonucleotides containing a siRNA sequence, 8 nucleotide spacers, and a polyT terminator sequence were annealed and then cloned into the HapI and XhoI sites of GFP-expressing pLentilox3.7 vector using methods well known in the art (See, e.g., D. A. Rubinson et al., Nat. Genet. 33, 401-6 (2003)). siRNA was under the control of a U6 promoter. The following DNA sequences used to construct siRNAs for IRAK4, MyD88, and TLR7, 8 and 9, were effective in silencing their corresponding genes:
5×10^6 293T cells were pre-seeded onto 100-mm dishes and transfected with 12 μg siRNA lentiviral DNA, 12 μg VSV-G plasmid DNA and 12 μg packaging viral CMV delta 8.9 plasmid, using Lipofectamine 2000. After the addition of fresh culture medium 8 h later, the cells were cultured for an additional 2-3 days. Viral supernatants were harvested, passed through a […] filter and concentrated by ultracentrifugation at 20,000 rpm for 2 h. Virus pellets were resuspended in a small volume of medium, and viral titers were determined by infecting 293T cells with serially diluted doses of virus. […] Transduction efficiency was analyzed at 3 or 4 days post-transduction, and the cells were sorted into GFP^+and GFP^−cells with a FACS ARIA sorter. […]

[2] = tested on: Treg102 cells; assay: Proliferation and cytotoxicity of CFSE-labeled Treg cells (FACS); format: cell-based, human; settings: 3 days
Procedure: The expression of CD4, CD25 and GITR on Treg cells was determined by FACS analysis after staining with specific antibodies (purchased from R&D Systems and BD Biosciences). To isolate naturally occurring CD4^+ CD25^+ Treg cells, CD4^+ T cells were stained with anti-CD4 and anti-CD25 antibodies conjugated to either PE or FITC. After washing, the cells were sorted by FACSARIA into CD4^+ CD25^+ and CD4^+ CD25^− T cell populations. For experiments with carboxyfluorescein diacetate succinimidyl ester (CFSE)-labeled cells, näive CD4^+ T cells or Treg cells ([…]) were stained with CFSE (4.5 uM) from Molecular Probes at 37° C. for 15 min. After several washes, the labeled cells were cultured in RPMI 1640 containing 10% human AB serum and IL-2 (300 IU/ml). To determine suppression of cell division by Treg cells, unlabeled Treg cells were added to CFSE-labeled näive T cells at an 1:1 ratio in 24-well plates precoated with OKT3 (2 ug/ml) in the presence or absence of CpG-A or Poly-G2 (3 ug/ml). After 3 days in culture, the cells were analyzed by FACS gating on the CFSE-labeled cells.
FIG. 5. […] After 3 days of culture, the proliferative profile was determined by FACS analysis. […]

Row | Substance | reversibility of suppression by Poly-G10 ([1]; IRAK4 siRNA-transduced (GFP+) Treg164 cells) | reversibility of suppression by Poly-G10 ([1]; MyD88 siRNA-transduced (GFP+) Treg164 cells) | number of Treg cells (cytotoxicity) ([2]; presence or absence of CpG-A 3 μg/ml) | proliferation of CFSE-labeled Treg cells ([2]; with naive T cells, OKT3, IL-2, CpG-A 3 μg/ml)
1 | Poly-G10: guanosine oligonucleotide with protected phosphorothioate backbone (DNA dG*dG*dG*dG*dG*dG*dG*dG*dG*dG) | lost the capacity to reverse their suppressive function | lost the capacity to reverse their suppressive function | – | –
2 | G* GGGGACGATCGTCG* G*G*G*G*G [CpG-A] | – | – | did not change | do not proliferate
